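Where inhibition never reached the appropriate level, the endpoint shown equals the highest concentration tested. Otherwise, values were interpolated linearly from a five-concentration, 48-hour dose response in 96-well plates. GI50: concentration for 50% inhibition of growth. TGI marks complete inhibition of growth.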
What was measured:
Experiment in all cases: NCI-60 cell line screen, 48 h
[1] = test system: U251 CNS
[2] = test system: DU-145 prostate
[3] = test system: SF-539 CNS
[4] = test system: MCF7 breast
[5] = test system: SK-MEL-5 melanoma
[6] = test system: UACC-257 melanoma
[7] = test system: HOP-62 NSCLC
[8] = test system: NCI/ADR-RES ovarian
[9] = test system: SF-295 CNS
[10] = test system: NCI-H226 lung
[11] = test system: EKVX NSCLC

Row | Structure (SMILES) | TGI [1] [µM] | TGI [2] [µM] | TGI [3] [µM] | TGI [4] [µM] | TGI [5] [µM] | TGI [6] [µM] | TGI [7] [µM] | TGI [8] [µM] | TGI [9] [µM] | TGI [10] [µM] | TGI [11] [µM] | GI50 [2] [µM] | GI50 [3] [µM] | GI50 [11] [µM] | GI50 [9] [µM] | GI50 [10] [µM] | GI50 [5] [µM]
1 | COc1c(O)cc(/C=C/c2cc(O)cc3c2[C@@]2(C(=O)O3)c3c(O)cc(O)cc3OC2c2cccc(O)c2)cc1O (stereo partly specified) | > 100 | > 100 | > 100 | > 100 | 72.1 | > 100 | > 100 | 77.8 | – | – | – | – | – | – | – | – | –
2 | CCOC(=O)[C@H]1C[C@@H](C(=O)c2ccccc2)N2N=C(c3ccc(Br)cc3)C=C[C@H]12 | > 100 | > 100 | – | > 100 | – | > 100 | > 100 | > 100 | > 100 | > 100 | – | – | – | – | – | – | –
3 | CN1CC=C(OP(=O)(NCc2ccccc2)N(CCCl)CCCl)CC1 (stereo unspecified) | > 100 | > 100 | > 100 | > 100 | – | > 100 | > 100 | > 100 | > 100 | > 100 | > 100 | – | – | – | – | – | –
4 | CCCCOC(=O)/C(CC(=O)C=C(C)C)=N\NS(=O)(=O)c1ccc(C)cc1 | > 100 | – | > 100 | – | > 100 | > 100 | > 100 | – | > 100 | > 100 | > 100 | – | – | – | – | – | –
5 | CSC1=N/C(=C\c2cccs2)C(=O)N1CN1CCCCC1 | > 100 | > 100 | – | > 100 | > 100 | – | > 100 | > 100 | > 100 | > 100 | > 100 | – | – | – | – | – | –
6 | CCCCCCCCCC(=O)OCC1(CO)C/C(=C/CC(C(C)C)C(C)C)C(=O)O1 (stereo unspecified) | 89.4 | > 100 | – | > 100 | > 100 | > 100 | > 100 | > 100 | > 100 | > 100 | > 100 | – | – | – | – | – | –
7 | Cc1ccc(-c2c(C#N)c(-c3ccc(N(C)C)cc3)c(C#N)c(=O)n2NS(=O)(=O)c2ccccc2)cc1 | > 100 | – | 83.4 | > 100 | 36.8 | > 100 | > 100 | > 100 | > 100 | > 100 | > 100 | – | – | – | – | – | –
8 | COc1ccc2c(OC)c3ccoc3nc2c1O | > 100 | – | > 100 | – | > 100 | > 100 | > 100 | – | > 100 | – | > 100 | – | – | – | – | – | –
9 | Clc1cc(Cl)cc(N2N=C(c3cccc(Nc4ccncc4)c3)CC2c2ccccc2)c1 (stereo unspecified) | – | 6.51 | 3.2 | – | 3.23 | – | – | – | 3.08 | 38.7 | 4.23 | 2.54 | 1.72 | 1.7 | 1.65 | 14 | 1.78
10 | CC(SC1=CC(=O)c2c(Cl)ccc(O)c2C1=O)C(=O)O (stereo unspecified) | 40.2 | – | 32.8 | – | 27.5 | 30.3 | – | – | 33.3 | 57.3 | 39.9 | – | – | – | – | – | –
11 | COC(=O)c1c/c(=N\NC(=O)CC(=O)Nc2ccccc2Cl)c2ccccc2o1 | > 100 | – | > 100 | – | > 100 | > 100 | > 100 | – | > 100 | > 100 | > 100 | – | – | – | – | – | –
12 | CCc1cc(Cc2cc(CC)c(NC(=O)C3=CC(=O)CC(c4ccc(OC)cc4)O3)c(CC)c2Cl)c(Cl)c(CC)c1NC(=O)C1=CC(=O)CC(c2ccc(OC)cc2)O1 (stereo unspecified) | 26.1 | – | 38.9 | – | 36.4 | 36.8 | 46.5 | – | 38.7 | 47.5 | > 100 | – | – | – | – | – | –
13 | COc1ccc(NC=O)c(C(O)CCNC(C)=O)c1 (stereo unspecified) | > 100 | > 100 | > 100 | > 100 | > 100 | > 100 | – | > 100 | > 100 | > 100 | > 100 | – | – | – | – | – | –
14 | O=C(Cc1ccccc1)N/N=C(/CCN1CCCC1)CC(c1ccccc1)c1c(O)c2ccccc2oc1=O (stereo unspecified) | > 100 | > 100 | > 100 | > 100 | > 100 | > 100 | – | > 100 | – | > 100 | > 100 | – | – | – | – | – | –
15 | CC(=O)c1c2c(cc3c1CC1(Cc4cc5c(cc4C1)CCC5)C3)CCC2 | > 100 | > 100 | > 100 | > 100 | > 100 | > 100 | > 100 | > 100 | > 100 | – | > 100 | – | – | – | – | – | –
16 | O=S(=O)(CC1=NC2C=CC=CC2N=C1)NCc1ccccc1 (stereo unspecified) | > 100 | – | > 100 | – | > 100 | – | > 100 | – | > 100 | > 100 | > 100 | – | – | – | – | – | –
17 | O=C(Nc1ccccc1)N1CCNC1=S | > 100 | > 100 | > 100 | > 100 | > 100 | – | > 100 | > 100 | > 100 | > 100 | > 100 | – | – | – | – | – | –
18 | Cn1c(=O)nc2n(CCO)c(-c3ccccc3)c(-c3ccccc3)nc-2c1=O | > 100 | > 100 | > 100 | – | > 100 | > 100 | > 100 | > 100 | > 100 | > 100 | > 100 | – | – | – | – | – | –
19 | COc1ccc2c(c1)c(Cc1c(C)n(C)c3ccc(OC)cc13)c(C)n2C | > 100 | – | > 100 | – | > 100 | > 100 | > 100 | – | > 100 | > 100 | > 100 | – | – | – | – | – | –
20 | CC(=O)OC1[C@H]2c3cc4c(cc3CN3CCC(C[C@@H]1OC(C)=O)C23)OCO4 (stereo partly specified) | > 75 | – | > 75 | – | – | > 75 | > 75 | – | > 75 | 59.9 | > 75 | – | – | – | – | – | –
21 | O=C(CCN(CCO)CCO)Nc1ccc2c(c1)C(=O)c1ccc(NC(=O)CCN(CCO)CCO)cc1C2=O | > 100 | – | 22.3 | – | 40.7 | > 100 | 98.3 | – | > 100 | 44.2 | 55 | – | – | – | – | – | –
22 | CCCOC(=O)c1cc(C(=CCC[C@H]2CC[C@@]3(C)[C@@H](CC[C@@H]4[C@@H]3CC[C@]3(C)[C@@H](C(C)CCCC(C)C)CC[C@@H]43)C2)c2cc(Cl)c(O)c(C(=O)OCCC)c2)cc(Cl)c1O (stereo partly specified) | > 50 | > 50 | – | – | > 50 | – | > 50 | > 50 | – | > 50 | > 50 | – | – | – | – | – | –
23 | CN(CCO)CC(=O)CC(O)(C(F)(F)F)C(F)(F)F | > 100 | > 100 | > 100 | > 100 | 31.8 | > 100 | – | > 100 | > 100 | > 100 | > 100 | – | – | – | – | – | –

Source: PubChem BioAssay (NCI)
